Structures can show the parent of a compound that is named as a salt. Each block holds one compound with its values, some of them ahead of it.
Tests used:
[1] = tested on: conscious SHR; assay: Assay XIII: antihypertensive experiments in conscious SHR (renal denervation, bulbocapnine); assay type: in vivo, rat; settings: bulbocapnine alone
Description: For antihypertensive experiments, male SHR (11-13 weeks of age; Harlan Sprague-Dawley, Inc.; Indianapolis, Ind.) were habituated for 3-4 days in individual experimental cages, which became their home cages for the duration of the study. Five to seven days before experimentation, SHR were anesthetized with chloral hydrate (400 mg/kg; Sigma Chemical Co., St. Louis, Mo.) and catheters were implanted into a femoral artery and vein. The catheters were led to the back of the neck, exteriorized, and channeled through a tether and swivel system (Alice King Chatham, Los Angeles, Calif.). Surgical renal denervation was performed as above. […] In separate groups of conscious SHR, Ex. #859 (5 mg/kg/hr, n=6) was infused alone, Ex. #859 (5 mg/kg/hr, n=6) was coinfused with bulbocapnine (100 μg/kg/min), or Ex. #859 (10 mg/kg/hr, n=6) was infused 5-7 days after surgical renal denervation. Surgical renal denervation was performed as described above. After a one hour control measure of mean arterial pressure, compounds were infused for four hours and mean arterial pressure was measured continuously.

[2] = tested on: Sprague-Dawley rats; assay: Assay I: acute in vivo effects on mean arterial pressure and renal blood flow, anesthetized rats; set-up: species or system rat; settings: for MAP / RBF: 100 mg/kg i.v.
Description: Sprague-Dawley rats were anesthetized with inactin (100 mg/kg, i.p.) and catheters were implanted into a carotid artery for measurement of mean arterial pressure (Gould model 3800 chart recorder; Statham pressure transducer model no. P23DB) and into a jugular vein for compound administrations (i.v.). In addition, a flow probe was implanted around the left renal artery for measurement of renal blood flow using Carolina Medical Electronics flow probes. Rats were allowed 60 min to stabilize before 10 minutes of control recordings of mean arterial pressure and renal blood flow were obtained. Control measurements were followed by intravenous injection of Ex. #3 conjugate and saline vehicle.

[3] = tested on: spontaneously hypertensive rats; assay: Assay II: chronic i.v. infusion, mean arterial pressure in spontaneously hypertensive rats (Ex. #3); assay type: in vivo, rat; settings: SHR, continuous infusion 5 mg/hr
Description: (§1) The Ex. #3 conjugate and saline vehicle were infused continuously for four days in spontaneously hypertensive rats. Mean arterial pressure was measured (Gould Chart Recorder, model 3800; Statham P23Db pressure transducer) via an indwelling femoral artery catheter between 10:00 a.m. and 2:00 p.m. each day. The Ex. #3 conjugate was infused at 5 mg/hr and the saline vehicle was infused at 300 μL,/hr. via a jugular vein catheter with a Harvard infusion pump.

[4] = tested on: spontaneously hypertensive rats; assay: Assay III: chronic i.v. infusion, mean arterial pressure in spontaneously hypertensive rats (Ex. #464); assay type: in vivo, rat; settings: SHR; for MAP: continuous infusion 10 mg/hr
Description: as §1, with “#464” for “#3”, “10” for “5”, “μL/hr.” for “μL,/hr. via a jugular vein catheter with a Harvard infusion pump.”

[5] = molecular target: T1, dopamine beta-hydroxylase (DBH; EC 1.14.17.1) (Bos taurus, UniProt P15101); assay: Assay V: in vitro DBH inhibition (norepinephrine production, HPLC); assay type: biochemical, bovine; settings: for inhibition at 20 µM: test compound 20 μM, read-out: % Inhibition of DBH
T1 construct: DBH, purified from bovine adrenals (Sigma); purchased Sigma; host or cells: bovine adrenals (tissue-purified)
T1 sequence (P15101 1-610): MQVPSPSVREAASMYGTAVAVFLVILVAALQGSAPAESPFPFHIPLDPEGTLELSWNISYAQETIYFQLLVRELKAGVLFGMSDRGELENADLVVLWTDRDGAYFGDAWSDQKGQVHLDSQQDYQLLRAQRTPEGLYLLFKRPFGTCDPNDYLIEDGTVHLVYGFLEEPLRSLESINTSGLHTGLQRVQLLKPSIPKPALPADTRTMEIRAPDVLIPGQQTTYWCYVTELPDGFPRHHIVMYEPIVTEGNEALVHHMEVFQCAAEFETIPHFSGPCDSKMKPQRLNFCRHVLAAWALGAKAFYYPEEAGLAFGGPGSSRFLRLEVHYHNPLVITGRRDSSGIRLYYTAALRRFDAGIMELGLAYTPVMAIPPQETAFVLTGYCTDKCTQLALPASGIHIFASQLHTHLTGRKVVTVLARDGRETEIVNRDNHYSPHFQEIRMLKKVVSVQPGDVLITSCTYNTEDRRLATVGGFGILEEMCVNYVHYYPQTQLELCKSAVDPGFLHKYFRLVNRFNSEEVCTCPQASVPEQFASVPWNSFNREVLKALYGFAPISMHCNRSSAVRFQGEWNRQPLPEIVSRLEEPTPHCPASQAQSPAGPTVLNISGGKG
Description: In order to characterize the relative potency of the Ex. #859 conjugate and its various potential metabolites as inhibitors of dopamine beta-hydroxylase (DBH; EC 1.14.17.1), the enzyme activity was determined in vitro in the presence of these compounds. DBH, purified from bovine adrenals (Sigma) was incubated at 37° C. in buffer containing 20 mM dopamine as substrate. The reaction was stopped by addition of 0.5 M perchloric acid. The precipitate was removed and the product of the enzyme activity (norepinephrine), contained in the clear supernatant, was analyzed by HPLC. The chromatographic separation used a reversed phase C-18 column run isocratically with 0.2 M ammonium acetate (pH 5.2) as the mobile phase. The amount of norepinephrine produced by the enzyme-substrate mixture was analyzed by measuring the peak intensity (absorbance) at 280 nm for norepinephrine as it was eluted at 4.5 minutes, using a photo-diode array detector. The result of adding either fusaric acid or the Ex. #859 conjugate to the incubate at various concentrations is shown in Table XXIII and FIG. 6. […] Fusaric acid and Ex. #859 and two more possible metabolites (Ex #858 and fusaric acid hydrazide) were tested at 20 uM.

[6] = tested on: spontaneously hypertensive rats; assay: Assay IX: chronic 4 day i.v. infusion of Ex. #861 and #863, mean arterial pressure in SHR; assay type: in vivo, rat; settings: for Blood Pressure (mean arterial pressure): 5 mg/hr i.v. infusion; for chronic effect on mean arterial pressure: SHR, 4 day infusion at 5 mg/hr
Description: The conjugates of Ex. #861 and #863 and saline vehicle were infused continuously for 4 days in spontaneously hypertensive rats. Mean arterial pressure was measured (Gould Chart Recorder, model 3800; Statham P23Db pressure transducer) via an indwelling femoral artery catheter between 10:00 a.m. and 2:00 p.m. each day. The Ex. #861 and Ex. #863 conjugates were infused at 5 mg/hr and the saline vehicle was infused at 100 μl/hr via a jugular vein catheter with a Harvard infusion pump. […] It is believed that at a higher dose of the Ex. #861 conjugate, blood pressure lowering effects would be observed.

[7] = tested on: spontaneously hypertensive rats; assay: Assay VI: acute in vivo effects on mean arterial pressure and renal blood flow in anesthetized SHR (i.v. or i.d.); set-up: species or system rat; settings: for MAP / RBF: 100 mg/kg i.v.
Description: Spontaneously hypertensive rats were anesthetized with inactin (100 mg/kg, i.p.) and catheters were implanted into a carotid artery for measurement of mean arterial pressure (Gould model 3800 chart recorder; Statham pressure transducer model no. P23DB) and into a jugular vein for compound administrations (i.v. or i.d.). In addition, a flow probe was implanted around the left renal artery for measurement of renal blood flow using pulsed Doppler flowmetry. Rats were allowed 60 min to stabilize before 10 minutes of control recordings of mean arterial pressure and renal blood flow were obtained. Control measurements were followed by intravenous injection of 50 mg/kg of fusaric acid or the Ex. #859 conjugate. […] The Ex. #859 conjugate had no effect on mean arterial pressure at a dose of 100 mg/kg (n=4) during a 60 minute observation period. Renal blood flow (n=4) was unchanged 15 minutes after injection of the Ex. #859 conjugate but increased from 1.1 KHz (control period) to 3.5 KHz at 30 minutes postinjection.

[8] = tested on: Spontaneously Hypertensive Rats (SHR); assay: Assay VII: acute effects on arterial pressure in anesthetized SHR; assay type: in vivo, rat; settings: i.v.: fusaric acid and fusaric acid hydrazide 100 mg/kg, Ex. #859 250 mg/kg
Description: Mean arterial pressure effects of fusaric acid hydrazide (100 mg/kg, i.v.), fusaric acid (100 mg/kg, i.v.) and Ex. #859 conjugate (250 mg/kg, i.v.) are shown in Table XXVII during a vehicle control period and 60 min post-injection of compound in anesthetized SHR. Rats were prepared as described above, minus the renal artery flow probe.

[9] = anesthetized SHR, Ex. #863 (Table XXVI)

melting point: 156 to 158 °C
Structure (SMILES): CCCCc1ccc(C(=O)NCCNC(=O)CCC(NC(C)=O)C(=O)O)nc1 (as salt: salt) [Ex. #861, N^2-acetyl-N-[2-[[(5-butyl-2-pyridinyl)carbonyl]amino]ethyl]-L-glutamine]

Structure (SMILES): COc1ccc2c(c1O)-c1c3c(cc4c1[C@H](C2)N(C)CC4)OCO3 [Bulbocapnine, bulbocapnine, reference compound]
Mean arterial pressure ([1]; 0 hours): 160 ± 6 | Mean arterial pressure ([1]; 1 hour): 156 ± 7 | Mean arterial pressure ([1]; 2 hours): 161 ± 11 | Mean arterial pressure ([1]; 3 hours): 159 ± 6 | Mean arterial pressure ([1]; 4 hours): 157 ± 7 | effect on mean arterial pressure over the four hour period ([1]; conscious SHR): no effect

Structure (SMILES): CC(=O)NC(CCC(=O)N[C@@](C)(Cc1ccc(O)cc1)C(=O)O)C(=O)O (stereo partly drawn) [Ex. #3, N-[4-(acetylamino)-4-carboxy-1-oxobutyl]-α-methyl-L-tyrosine]
MAP ([2]; 15 min after injection): 77 ± 5 mm Hg | RBF ([2]; 15 min after injection): 7.1 ± 0.1 mL/min | MAP ([2]; 30 min after injection): 73 ± 4 mm Hg | RBF ([2]; 30 min after injection): 6.2 ± 0.3 mL/min | MAP ([2]; 45 min after injection): 70 ± 2 mm Hg | RBF ([2]; 45 min after injection): 5.9 ± 0.1 mL/min | MAP ([2]; 60 min after injection): 71 ± 6 mm Hg | RBF ([2]; 60 min after injection): 5.9 ± 0.1 mL/min | MAP ([2]; time after injection Zero min): 76 ± 5 mm Hg | RBF ([2]; time after injection Zero min): 4.8 ± 0.8 mL/min | acute effect on mean arterial pressure (MAP) ([2]; i.v. injection): no acute effects | acute effect on renal blood flow (RBF) ([2]; i.v. injection): increased renal blood flow | MAP ([3]; day 1): 175 ± 5 mm Hg | MAP ([3]; day 2): 174 ± 5 mm Hg | MAP ([3]; day 3): 172 ± 2 mm Hg | MAP ([3]; day Zero): 164 ± 3 mm Hg

Structure (SMILES): CC(=O)NC(CCC(=O)N[C@@](C)(Cc1ccc(O)c(O)c1)C(=O)O)C(=O)O (stereo partly drawn) [Ex. #464, N-[4-(acetylamino)-4-carboxy-1-oxobutyl]-3-hydroxy-α-methyl-L-tyrosine]
MAP ([4]; day 1): 169 ± 5 mm Hg | MAP ([4]; day 2): 161 ± 4 mm Hg | MAP ([4]; day 3): 163 ± 5 mm Hg | MAP ([4]; day 4): 159 ± 8 mm Hg | MAP ([4]; day Zero): 179 ± 6 mm Hg | effect on mean arterial pressure over the four-day period ([4]; infusion 10 mg/hr): lowered significantly

inhibition at 20 µM [5]: 0%
Structure (SMILES): CCCCc1ccc(C(=O)NNC(=O)CCC(N)C(=O)O)nc1 [Ex. #858, L-glutamic acid, 5-{[(5-butyl-2-pyridinyl)carbonyl]hydrazide}]

Structure (SMILES): CCCCc1ccc(C(=O)NCCNC(=O)CCC(NC(C)=O)C(=O)O)nc1 [Ex. #861, N^2-acetyl-N-[2-[[(5-butyl-2-pyridinyl)carbonyl]amino]ethyl]-L-glutamine]
Blood Pressure (mean arterial pressure) ([6]; day 1): 173 ± 3 | Blood Pressure (mean arterial pressure) ([6]; day 2): 172 ± 4 | Blood Pressure (mean arterial pressure) ([6]; day 3): 172 ± 3 | Blood Pressure (mean arterial pressure) ([6]; day 4): 163 ± 9 | Blood Pressure (mean arterial pressure) ([6]; day zero): 177 ± 3 | chronic effect on mean arterial pressure [6]: did not change

Structure (SMILES): CCCCc1ccc(C(=O)N2CCN(C(=O)CCC(NC(C)=O)C(=O)O)CC2)nc1 (stereo not shown) [Ex. #863, 2-(acetylamino)-5-(4-[(5-butyl-2-pyridinyl)carbonyl]-1-piperazinyl]-5-oxopentanoic acid]
MAP ([7]; 60 min): 147 ± 14 mm Hg | RBF ([7]; 60 min): 4.3 ± 0.3 KHz | MAP ([7]; time zero): 149 ± 14 mm Hg | RBF ([7]; time zero): 1.6 ± 0.2 KHz | effect on mean arterial pressure [7, 9]: no effect | effect on renal blood flow [7, 9]: increased renal blood flow | Blood Pressure (mean arterial pressure) ([6]; day 1): 152 ± 6 | Blood Pressure (mean arterial pressure) ([6]; day 2): 146 ± 7 | Blood Pressure (mean arterial pressure) ([6]; day 3): 142 ± 7 | Blood Pressure (mean arterial pressure) ([6]; day 4): 154 ± 7 | Blood Pressure (mean arterial pressure) ([6]; day zero): 177 ± 5 | chronic effect on mean arterial pressure [6]: lowered mean arterial pressure

inhibition at 20 µM [5]: 13.8%
Structure (SMILES): CCCCc1ccc(C(=O)NN)nc1 [Fusaric Acid Hydrazide, 5-n-butylpicolinic acid hydrazide]
Mean arterial pressure ([8]; 60 MIN post-injection): 104 ± 13 mmHg | Mean arterial pressure ([8]; ZERO (vehicle control period)): 159 ± 8 mmHg | inhibitory effect on dopamine-β-hydroxylase activity ([5]; tested at 20 uM): Only fusaric acid had significant inhibitory effects
